{"source": "patent US9028845B2", "about": "“Chimeric immunomodulatory compounds and methods of using the same-IV” (Dynavax Technologies Corporation, priority 2001, dated 2015)", "key": {"mice": {"system": "mice", "experiment": "Serum cytokines (IL-12 p40, IL-6, TNF-α) after subcutaneous injection in mice", "format": "in vivo", "settings": "20 ug subcutaneous, blood 2 hours later", "procedure": "Blood was collected 2 hours later. For the LPS positive control group, mice were injected intraperitoneally with a 200 ul volume, and blood was collected 1.5 hours later (i.e., at the peak of LPS induced TNF-α activity). The blood was clotted and the serum was prepared and stored at −80° C. until assayed. Serum cytokines were assayed using Biosource cytoscreen kits for TNF-α and Pharmingen antibody pairs for mIL-6 and mIL-12. All samples were assayed in duplicate."}, "human PBMCs": {"system": "human PBMCs", "experiment": "Human PBMC cytokine response assay (IFN-γ and IFN-α in cell-free medium by ELISA), with or without cPLGA", "format": "cell-based"}, "[1]": {"settings": "Donor 5, 20 μg/ml (mixtures: 20 μg/ml total), 24 h"}, "[2]": {"settings": "Donor 6, 20 μg/ml (mixtures: 20 μg/ml total), 24 h"}}, "data": [{"substance": "5′-TGACTGTGAACGTTCGAGATGA-3′ (SEQ ID NO: 2) [Compound P-6, reference compound]", "values": [{"measurement": "induction of serum IL-12 p40, IL-6 and TNF-α, in words", "setting": "mice", "result": "induced IL-12 p40, IL-6, and TNF-α"}, {"measurement": "IFN-α (pg/ml) Donor 1", "setting": "human PBMCs; Donor 1, 20 μg/ml, 24 h", "result": 401, "unit": "pg/mL"}, {"measurement": "IFN-γ (pg/ml) Donor 1", "setting": "human PBMCs; Donor 1, 20 μg/ml, 24 h", "result": 2180, "unit": "pg/mL"}, {"measurement": "IFN-α (pg/ml) Donor 2", "setting": "human PBMCs; Donor 2, 20 μg/ml, 24 h", "result": 39, "unit": "pg/mL"}, {"measurement": "IFN-γ (pg/ml) Donor 2", "setting": "human PBMCs; Donor 2, 20 μg/ml, 24 h", "result": 669, "unit": "pg/mL"}, {"measurement": "IFN-α (pg/ml) Donor 3", "setting": "human PBMCs; Donor 3, 20 μg/ml, 24 h", "result": 28, "unit": "pg/mL"}, {"measurement": "IFN-γ (pg/ml) Donor 3", "setting": "human PBMCs; Donor 3, 20 μg/ml, 24 h", "result": 99, "unit": "pg/mL"}, {"measurement": "IFN-α (pg/ml) Donor 4", "setting": "human PBMCs; Donor 4, 20 μg/ml, 24 h", "result": 106, "unit": "pg/mL"}, {"measurement": "IFN-γ (pg/ml) Donor 4", "setting": "human PBMCs; Donor 4, 20 μg/ml, 24 h", "result": 223, "unit": "pg/mL"}, {"measurement": "IFN-α (pg/ml) Donor 5", "setting": "human PBMCs; [1]", "result": 54, "unit": "pg/mL"}, {"measurement": "IFN-γ (pg/ml) Donor 5", "setting": "human PBMCs; [1]", "result": 73, "unit": "pg/mL"}, {"measurement": "IFN-α (pg/ml) Donor 6", "setting": "human PBMCs; [2]", "result": 482, "unit": "pg/mL"}, {"measurement": "IFN-γ (pg/ml) Donor 6", "setting": "human PBMCs; [2]", "result": 1170, "unit": "pg/mL"}, {"measurement": "IFN-α (pg/ml) Donor 7", "setting": "human PBMCs; Donor 7, 20 μg/ml, 24 h", "result": 4, "unit": "pg/mL"}, {"measurement": "IFN-γ (pg/ml) Donor 7", "setting": "human PBMCs; Donor 7, 20 μg/ml, 24 h", "result": 15, "unit": "pg/mL"}, {"measurement": "IFN-α (pg/ml) Donor 8", "setting": "human PBMCs; Donor 8, 20 μg/ml, 24 h", "result": 59, "unit": "pg/mL"}, {"measurement": "IFN-γ (pg/ml) Donor 8", "setting": "human PBMCs; Donor 8, 20 μg/ml, 24 h", "result": 367, "unit": "pg/mL"}, {"measurement": "IFN-α Donor 9", "setting": "human PBMCs; Donor 9, 20 μg/ml, 24 h", "result": 12}, {"measurement": "IFN-γ Donor 9", "setting": "human PBMCs; Donor 9, 20 μg/ml, 24 h", "result": 66}, {"measurement": "IFN-α Donor 10", "setting": "human PBMCs; Donor 10, 20 μg/ml, 24 h", "result": 28}, {"measurement": "IFN-γ Donor 10", "setting": "human PBMCs; Donor 10, 20 μg/ml, 24 h", "result": 20}, {"measurement": "IFN-α Donor 11", "setting": "human PBMCs; Donor 11, 20 μg/ml, 24 h", "result": 12}, {"measurement": "IFN-γ Donor 11", "setting": "human PBMCs; Donor 11, 20 μg/ml, 24 h", "result": 72}, {"measurement": "IFN-α Donor 12", "setting": "human PBMCs; Donor 12, 20 μg/ml, 24 h", "result": 12}, {"measurement": "IFN-γ Donor 12", "setting": "human PBMCs; Donor 12, 20 μg/ml, 24 h", "result": 23}, {"measurement": "IFN-α", "setting": "human PBMCs; Example 58, 0.8 ug/ml, donor 1", "result": 52, "unit": "pg/mL"}, {"measurement": "IFN-α", "setting": "human PBMCs; Example 58, 0.8 ug/ml, donor 2", "result": 52, "unit": "pg/mL"}, {"measurement": "IFN-α", "setting": "human PBMCs; Example 58, 0.8 ug/ml, donor 3", "result": 52, "unit": "pg/mL"}, {"measurement": "IFN-α", "setting": "human PBMCs; Example 58, 0.8 ug/ml, donor 4", "result": 52, "unit": "pg/mL"}, {"measurement": "IFN-α mean", "setting": "human PBMCs; Example 58, 0.8 ug/ml, mean of four individuals", "result": 52, "unit": "pg/mL"}, {"measurement": "IFN-α", "setting": "human PBMCs; Example 58, 4 ug/ml, donor 1", "result": 115, "unit": "pg/mL"}, {"measurement": "IFN-α", "setting": "human PBMCs; Example 58, 4 ug/ml, donor 2", "result": 52, "unit": "pg/mL"}, {"measurement": "IFN-α", "setting": "human PBMCs; Example 58, 4 ug/ml, donor 3", "result": 52, "unit": "pg/mL"}, {"measurement": "IFN-α", "setting": "human PBMCs; Example 58, 4 ug/ml, donor 4", "result": 65, "unit": "pg/mL"}, {"measurement": "IFN-α mean", "setting": "human PBMCs; Example 58, 4 ug/ml, mean of four individuals", "result": 71, "unit": "pg/mL"}, {"measurement": "IFN-α", "setting": "human PBMCs; Example 58, 20 ug/ml, donor 1", "result": 116, "unit": "pg/mL"}, {"measurement": "IFN-α", "setting": "human PBMCs; Example 58, 20 ug/ml, donor 2", "result": 64, "unit": "pg/mL"}, {"measurement": "IFN-α", "setting": "human PBMCs; Example 58, 20 ug/ml, donor 3", "result": 52, "unit": "pg/mL"}, {"measurement": "IFN-α", "setting": "human PBMCs; Example 58, 20 ug/ml, donor 4", "result": 52, "unit": "pg/mL"}, {"measurement": "IFN-α mean", "setting": "human PBMCs; Example 58, 20 ug/ml, mean of four individuals", "result": 71, "unit": "pg/mL"}, {"measurement": "IFN-α", "setting": "human PBMCs; Example 59, 0.8 ug/ml, donor 48", "result": 102, "unit": "pg/mL"}, {"measurement": "IFN-α", "setting": "human PBMCs; Example 59, 0.8 ug/ml, donor 177", "result": 102, "unit": "pg/mL"}, {"measurement": "IFN-α", "setting": "human PBMCs; Example 59, 0.8 ug/ml, donor 272", "result": 102, "unit": "pg/mL"}, {"measurement": "IFN-α", "setting": "human PBMCs; Example 59, 0.8 ug/ml, donor 273", "result": 102, "unit": "pg/mL"}, {"measurement": "IFN-α mean", "setting": "human PBMCs; Example 59, 0.8 ug/ml, mean of four donors", "result": 102, "unit": "pg/mL"}, {"measurement": "IFN-α", "setting": "human PBMCs; Example 59, 4 ug/ml, donor 48", "result": 102, "unit": "pg/mL"}, {"measurement": "IFN-α", "setting": "human PBMCs; Example 59, 4 ug/ml, donor 177", "result": 245, "unit": "pg/mL"}, {"measurement": "IFN-α", "setting": "human PBMCs; Example 59, 4 ug/ml, donor 272", "result": 102, "unit": "pg/mL"}, {"measurement": "IFN-α", "setting": "human PBMCs; Example 59, 4 ug/ml, donor 273", "result": 102, "unit": "pg/mL"}, {"measurement": "IFN-α mean", "setting": "human PBMCs; Example 59, 4 ug/ml, mean of four donors", "result": 138, "unit": "pg/mL"}, {"measurement": "IFN-α", "setting": "human PBMCs; Example 59, 20 ug/ml, donor 48", "result": 256, "unit": "pg/mL"}, {"measurement": "IFN-α", "setting": "human PBMCs; Example 59, 20 ug/ml, donor 177", "result": 323, "unit": "pg/mL"}, {"measurement": "IFN-α", "setting": "human PBMCs; Example 59, 20 ug/ml, donor 272", "result": 102, "unit": "pg/mL"}, {"measurement": "IFN-α", "setting": "human PBMCs; Example 59, 20 ug/ml, donor 273", "result": 102, "unit": "pg/mL"}, {"measurement": "IFN-α mean", "setting": "human PBMCs; Example 59, 20 ug/ml, mean of four donors", "result": 196, "unit": "pg/mL"}, {"measurement": "IFN-α", "setting": "human PBMCs; Table 9, donor 28089", "result": 0, "unit": "pg/mL"}, {"measurement": "IFN-γ", "setting": "human PBMCs; Table 9, donor 28089", "result": 84, "unit": "pg/mL"}, {"measurement": "IFN-α", "setting": "human PBMCs; Table 9, donor 28090", "result": 62, "unit": "pg/mL"}, {"measurement": "IFN-γ", "setting": "human PBMCs; Table 9, donor 28090", "result": 255, "unit": "pg/mL"}, {"measurement": "IFN-α", "setting": "human PBMCs; Table 9, donor 28098", "result": 105, "unit": "pg/mL"}, {"measurement": "IFN-γ", "setting": "human PBMCs; Table 9, donor 28098", "result": 745, "unit": "pg/mL"}, {"measurement": "IFN-α", "setting": "human PBMCs; Table 9, donor 28099", "result": 105, "unit": "pg/mL"}, {"measurement": "IFN-γ", "setting": "human PBMCs; Table 9, donor 28099", "result": 125, "unit": "pg/mL"}, {"measurement": "IFN-α mean", "setting": "human PBMCs; Table 9, mean of donors", "result": 68, "unit": "pg/mL"}, {"measurement": "IFN-γ mean", "setting": "human PBMCs; Table 9, mean of donors", "result": 302, "unit": "pg/mL"}, {"measurement": "IFN-α", "setting": "human PBMCs; Table 10, donor 28042", "result": 27, "unit": "pg/mL"}, {"measurement": "IFN-γ", "setting": "human PBMCs; Table 10, donor 28042", "result": 495, "unit": "pg/mL"}, {"measurement": "IFN-α", "setting": "human PBMCs; Table 10, donor 28043", "result": 85, "unit": "pg/mL"}, {"measurement": "IFN-γ", "setting": "human PBMCs; Table 10, donor 28043", "result": 1189, "unit": "pg/mL"}, {"measurement": "IFN-α", "setting": "human PBMCs; Table 10, donor 28044", "result": 36, "unit": "pg/mL"}, {"measurement": "IFN-γ", "setting": "human PBMCs; Table 10, donor 28044", "result": 925, "unit": "pg/mL"}, {"measurement": "IFN-α", "setting": "human PBMCs; Table 10, donor 28045", "result": 21, "unit": "pg/mL"}, {"measurement": "IFN-γ", "setting": "human PBMCs; Table 10, donor 28045", "result": 212, "unit": "pg/mL"}, {"measurement": "IFN-α mean", "setting": "human PBMCs; Table 10, mean of donors", "result": 42, "unit": "pg/mL"}, {"measurement": "IFN-γ mean", "setting": "human PBMCs; Table 10, mean of donors", "result": 705, "unit": "pg/mL"}, {"measurement": "IFN-α", "setting": "human PBMCs; Table 11, donor 28042", "result": 9, "unit": "pg/mL"}, {"measurement": "IFN-γ", "setting": "human PBMCs; Table 11, donor 28042", "result": 324, "unit": "pg/mL"}, {"measurement": "IFN-α", "setting": "human PBMCs; Table 11, donor 28043", "result": 34, "unit": "pg/mL"}, {"measurement": "IFN-γ", "setting": "human PBMCs; Table 11, donor 28043", "result": 1036, "unit": "pg/mL"}, {"measurement": "IFN-α", "setting": "human PBMCs; Table 11, donor 28044", "result": 22, "unit": "pg/mL"}, {"measurement": "IFN-γ", "setting": "human PBMCs; Table 11, donor 28044", "result": 529, "unit": "pg/mL"}, {"measurement": "IFN-γ", "setting": "human PBMCs; Table 11, donor 28045", "result": 653, "unit": "pg/mL"}, {"measurement": "IFN-α mean", "setting": "human PBMCs; Table 11, mean of donors", "result": 43, "unit": "pg/mL"}, {"measurement": "IFN-γ mean", "setting": "human PBMCs; Table 11, mean of donors", "result": 636, "unit": "pg/mL"}, {"measurement": "IFN-α", "setting": "human PBMCs; Table 13, donor 28156", "result": 52, "unit": "pg/mL"}, {"measurement": "IFN-γ", "setting": "human PBMCs; Table 13, donor 28156", "result": 1132, "unit": "pg/mL"}, {"measurement": "IFN-α", "setting": "human PBMCs; Table 13, donor 28157", "result": 484, "unit": "pg/mL"}]}]}
